Test results taken from US20130158024A1, “TRICYCLIC NECROSTATIN COMPOUNDS” (priority 2005, published 2013).
Like-named read-outs stand apart in the source and are kept apart here.

How the values were obtained:
[1] = test system: FADD-deficient Jurkat T cells treated with TNF-α; assay: Inhibition of necroptosis (CICD) in FADD-deficient Jurkat T cells treated with TNF-α, ATP-based viability; assay type: cell-based, human; details: for antinecroptotic (anti-CICD) activity, in words: FADD-deficient Jurkat cells, TNFα
[2] = 10 ng/mL human TNF-α, 24 hours, ATP-based viability, EC50 ± SD from at least two independent experiments, read-out: EC50 (μM) for inhibition of necroptosis
[3] = Homo sapiens, Jurkat, 24 h, read-out: EC50 (μM) for inhibition of necroptosis

SMILES	EC50 [1, 3] [µM]	antinecroptotic (anti-CICD) activity, in words [1]	also measured
CNC(=S)N1N=C2c3cc(OC)ccc3CC[C@@H]2[C@@H]1c1ccc(OC)cc1 (relative stereo) [Compound 154, (3R,3aR)-rel-2-carbothioamide-3,3a,4,5-tetrahydro-3-(4-methoxyphenyl)-8-methoxy-N-methyl-2H-benz[g]indazole]	–	–	EC50 [1, 2]: 7.9 ± 2 µM
COc1ccc2c(c1)CC[C@@H]1C2=NN(C(C)=O)[C@H]1c1ccc(F)cc1 (relative stereo) [Compound 162, (3R,3aS)-rel-2-acetyl-3,3a,4,5-tetrahydro-3-(4-fluorophenyl)-7-methoxy-2H-benz[g]indazole]	> 100	–	–
COc1ccc2c(c1)C1=NN(C(C)=O)[C@@H](c3ccc4c(c3)OCCO4)[C@@H]1CC2 (relative stereo) [Compound 206, (3R,3aS)-rel-2-acetyl-3,3a,4,5-tetrahydro-3-(3,4-ethylenedioxyphenyl)-8-methoxy-2H-benz[g]indazole]	–	–	melting point: 194 to 197 °C
COc1cc2c(cc1OC)C1=NN(C(C)=O)[C@@H](c3ccc(F)cc3)[C@@H]1CC2 (relative stereo) [Compound 198, (3R,3aS)-rel-2-acetyl-3,3a,4,5-tetrahydro-3-(4-fluorophenyl)-7,8-dimethoxy-2H-benz[g]indazole]	–	–	melting point: 231 to 233 °C
COc1ccc([C@H]2[C@H]3CCc4ccc(OC)cc4C3=NN2C(=N)N)cc1 (relative stereo) [Compound 157, (3R,3aR)-rel-2-carboxamidine-3,3a,4,5-tetrahydro-3-(4-methoxyphenyl)-8-methoxy-2H-benz[g]indazole]	–	–	EC50 [1, 2]: > 100 µM
COc1ccc([C@H]2[C@H]3CCc4ccc(OCCN5CCOCC5)cc4C3=NN2C(C)=O)cc1 (relative stereo) [Compound 183, (3R,3aR)-rel-2-acetyl-3,3a,4,5-tetrahydro-3-(4-methoxyphenyl)-8-(4-morpholino)ethoxy-2H-benz[g]indazole]	–	diminished activity	EC50 [1, 2]: > 50 µM
COc1ccc([C@H]2[C@H]3CCc4ccc(OC)cc4C3=NN2C=O)cc1 (relative stereo) [Compound 147, (3R,3aR)-rel-2-formyl-3,3a,4,5-tetrahydro-3-(4-methoxyphenyl)-8-methoxy-2H-benz[g]indazole]	0.92 ± 0.091	–	–
COc1ccc([C@H]2[C@H]3CCc4cccc(OC)c4C3=NN2C(C)=O)cc1 (relative stereo) [Compound 180, (3R,3aR)-rel-2-acetyl-3,3a,4,5-tetrahydro-3-(4-methoxyphenyl)-9-methoxy-2H-benz[g]indazole]	> 50	loss of activity	–
CCN1N=C2c3cc(OC)ccc3CC[C@@H]2[C@@H]1c1ccc(OC)cc1 (relative stereo) [Compound 213, (3R,3aR)-rel-2-ethyl-3,3a,4,5-tetrahydro-3-(4-methoxyphenyl)-8-methoxy-2H-benz[g]indazole]	> 100	complete loss of necroptosis inhibitory activity	–
COc1ccc([C@H]2[C@@H]3CCc4ccc(F)cc4C3=NN2C(C)=O)cc1 (relative stereo) [Compound 170, (3R,3aS)-rel-2-acetyl-3,3a,4,5-tetrahydro-3-(4-methoxyphenyl)-8-fluoro-2H-benz[g]indazole]	2.7 ± 0.82	–	–
COc1ccc([C@H]2[C@@H]3CCc4ccccc4C3=NN2C(C)=O)cc1 (relative stereo) [Compound 201, (3R,3aS)-rel-2-acetyl-3,3a,4,5-tetrahydro-3-(4-methoxyphenyl)-2H-benz[g]indazole]	–	–	melting point: 260 to 262 °C
COc1ccc([C@H]2[C@@H]3CCc4ccc(OC)cc4C3=NN2C=O)cc1 (relative stereo) [Compound 195, (3R,3aS)-rel-2-formyl-3,3a,4,5-tetrahydro-3-(4-methoxyphenyl)-8-methoxy-2H-benz[g] indazole]	–	–	melting point: 166 to 168 °C
CN1C(=O)C(Cc2c[nH]c3c(Cl)cccc23)NC1=S (centres unmarked) [Compound 7-Cl-Nec-1]	–	–	EC50 ([1]; Jurkat FADD deficient cells treated with TNFα, read-out: EC50): 0.182 µM; increase in activity relative to Nec-1 ([1]; addition of a chlorine to the phenyl ring of Nec-1): approximately 2.7 fold
COc1ccc([C@H]2[C@@H]3CCc4ccc([N+](=O)[O-])cc4C3=NN2C(C)=O)cc1 (relative stereo) [Compound 168, (3R,3aS)-rel-2-acetyl-3,3a,4,5-tetrahydro-3-(4-methoxyphenyl)-8-nitro-2H-benz[g]indazole]	> 100	–	–
COc1ccc([C@H]2[C@H]3C[C@H](N(C)C)c4ccc(OC)cc4C3=NN2C(C)=O)cc1 (relative stereo) [Compound 146, (3R,3aR,5S)-rel-2-acetyl-5-(N,N-dimethylamino)-3,3a,4,5-tetrahydro-3-(4-methoxyphenyl)-8-methoxy-2H-benz[g]indazole]	5.1 ± 2.2	–	–
COc1ccc([C@H]2[C@H]3CCc4ccc(F)cc4C3=NN2C(C)=O)cc1 (relative stereo) [Compound 171, (3R,3aR)-rel-2-acetyl-3,3a,4,5-tetrahydro-3-(4-methoxyphenyl)-8-fluoro-2H-benz[g]indazole]	0.28 ± 0.032	tolerated	–

SMILES	EC50 [1, 3] [µM]	antinecroptotic (anti-CICD) activity, in words [1]	also measured
COc1ccc([C@H]2[C@H]3CCc4ccc(OCc5ccccc5)cc4C3=NN2C(C)=O)cc1 (relative stereo) [Compound 181, (3R,3aR)-rel-2-acetyl-3,3a,4,5-tetrahydro-3-(4-methoxyphenyl)-8-benzyloxy-2H-benz[g]indazole]	5 ± 0.7	diminished activity	–
COc1ccc2c(c1)CC[C@H]1C2=NN(C(C)=O)[C@H]1c1ccc(F)cc1 (relative stereo) [Compound 163, (3R,3aR)-rel-2-acetyl-3,3a,4,5-tetrahydro-3-(4-fluorophenyl)-7-methoxy-2H-benz[g]indazole]	> 100	loss of activity	–
COc1ccc([C@H]2[C@H]3CCc4c(OC)cccc4C3=NN2C(C)=O)cc1 (relative stereo) [Compound 173, (3R,3aR)-rel-2-acetyl-3,3a,4,5-tetrahydro-3-(4-methoxyphenyl)-6-methoxy-2H-benz[g]indazole]	> 100	loss of activity	–
COc1ccc2c(c1)C1=NN(C(C)=O)[C@@H](c3ccc(SC)cc3)[C@H]1CC2 (relative stereo) [Compound 182, (3R,3aR)-rel-2-acetyl-3,3a,4,5-tetrahydro-3-(4-thiomethoxyphenyl)-8-methoxy-2H-benz[g]indazole]	–	detrimental to activity to varying degrees	EC50 [1, 2]: 1.1 ± 0.69 µM
COc1ccc([C@H]2[C@H]3CCc4ccc(OC)cc4C3=NN2C(N)=O)cc1 (relative stereo) [Compound 153, (3R,3aR)-rel-2-carboxamide-3,3a,4,5-tetrahydro-3-(4-methoxyphenyl)-8-methoxy-2H-benz[g]indazole]	–	–	EC50 [1, 2]: 4.3 ± 2.9 µM
CC(=O)N1N=C2c3cc(O)ccc3CC[C@@H]2[C@@H]1c1ccc(O)cc1 (relative stereo) [Compound 176, (3R,3aR)-rel-2-acetyl-3,3a,4,5-tetrahydro-3-(4-hydroxyphenyl)-8-hydroxy-2H-benz[g]indazole]	> 100	–	–
COc1ccc([C@H]2[C@H]3C[C@H](N)c4ccc(OC)cc4C3=NN2C(C)=O)cc1 (relative stereo) [Compound 145, (3R,3aR,5S)-rel-2-acetyl-5-amino-3,3a,4,5-tetrahydro-3-(4-methoxyphenyl)-8-methoxy-2H-benz[g]indazole]	1.2 ± 0.38	–	–
CN1C(=O)N[C@H](Cc2c[nH]c3c(Cl)cccc23)C1=O [R-7-Cl—O-Nec-1]	–	–	EC50 ([1]; Homo sapiens, Jurkat FADD deficient cells treated with TNFα, read-out: EC50): 0.047 µM; potency at inhibiting CICD relative to the (S)-enantiomer ([1]; enantiomers of 7-Cl—O-Nec-1): about 4 times
COc1ccc([C@H]2[C@H]3CCc4ccc([N+](=O)[O-])cc4C3=NN2C(C)=O)cc1 (relative stereo) [Compound 169, (3R,3aR)-rel-2-acetyl-3,3a,4,5-tetrahydro-3-(4-methoxyphenyl)-8-nitro-2H-benz[g]indazole]	3.5 ± 1.5	diminished inhibitory activity	–
COc1ccc([C@H]2[C@H]3CCc4ccc(OC)cc4C3=NN2C(N)=S)cc1 (relative stereo) [Compound 152, (3R,3aR)-rel-2-carbothioamide-3,3a,4,5-tetrahydro-3-(4-methoxyphenyl)-8-methoxy-2H-benz[g]indazole]	–	–	EC50 [1, 2]: 8.8 ± 3 µM
COCC(=O)N1N=C2c3cc(OC)ccc3CC[C@@H]2[C@@H]1c1ccc(OC)cc1 (relative stereo) [Compound 158, (3R,3aR)-rel-2-methoxyacetyl-3,3a,4,5-tetrahydro-3-(4-methoxyphenyl)-8-methoxy-2H-benz[g]indazole]	–	–	EC50 [1, 2]: 0.44 ± 0.24 µM
COc1ccc2c(c1)C1=NN(C(C)=O)[C@@H](c3ccc(OCc4ccccc4)cc3)[C@H]1CC2 (relative stereo) [Compound 174, (3R,3aR)-rel-2-acetyl-3,3a,4,5-tetrahydro-3-(4-benzyloxyphenyl)-8-methoxy-2H-benz[g]indazole]	> 100	detrimental to activity to varying degrees	–
COc1ccc([C@H]2[C@H]3CCc4ccc(OC)cc4C3=NN2C(=O)COC(C)=O)cc1 (relative stereo) [Compound 150, (3R,3aR)-rel-2-acetoxyacetyl-3,3a,4,5-tetrahydro-3-(4-methoxyphenyl)-8-methoxy-2H-benz[g]indazole]	–	–	EC50 [1, 2]: 3.1 ± 0.17 µM
COc1ccc2c(c1)C1=NN(C(C)=O)[C@@H](c3ccc(O)cc3)[C@H]1CC2 (relative stereo) [Compound 175, (3R,3aR)-rel-2-acetyl-3,3a,4,5-tetrahydro-3-(4-hydroxyphenyl)-8-methoxy-2H-benz[g]indazole]	5.9 ± 1.4	detrimental to activity to varying degrees	–
COc1ccc2c(c1)C1=NN(C(C)=O)[C@@H](c3ccc(O[N+](=O)[O-])cc3)[C@H]1CC2 (relative stereo) [Compound 172, (3R,3aR)-rel-2-acetyl-3,3a,4,5-tetrahydro-3-(4-nitroxyphenyl)-8-methoxy-2H-benz[g]indazole]	1.8 ± 0.38	–	–
